Measurements published in patent publication US9181172B2, “Rhein conjugates, preparation method thereof and their uses in producing medicines for treating diabetic nephrosis, intestinal adhesion and osteoarthritis” (priority 2005, dated 2015).

How the values were obtained:
[1] = tested on: obese rats of high-fat and high-sugar diet; assay: Body weight of obese rats of high-fat and high-sugar diet; type: in vivo
Excerpt: Group A: conventional diet, 4 weeks later, started to carry on intragastric administration, and the same volume of distilled water as the control, once daily, three weeks in succession.
Group B: high-fat high-sugar diet, 4 weeks later, started to carry on intragastric administration, and the same volume of distilled water as the model control, once daily, three weeks in succession.
Group C: high-fat high-sugar diet, 4 weeks later, started to carry on intragastric administration of rhein lysine conjugates [dose: 90 mg/kg (0.209 mmol/kg), prepared by distilled water], once daily, three weeks in succession.
Group D: high-fat high-sugar diet, 4 weeks later, started to carry on intragastric administration of rhein lysine conjugates [dose: 45 mg/kg (0.105 mmol/kg), prepared by distilled water], once daily, three weeks in succession.
Group E: high-fat high-sugar diet, 4 weeks later, started to carry on intragastric administration of rhein sodium [dose: 65 mg/kg (0.212 mmol/kg), prepared by distilled water], once daily, three weeks in succession.

[2] = tested on: obese hyperglycemia mice; assay: Body weight and blood glucose of obese hyperglycemia mice; type: in vivo
Experimental: 9-week-old obese mice of hyperglycemia were randomly divided into: rhein sodium group, non-treatment group, rosiglitazone group, rhein lysine high-dose group and low-dose group, each group has 6 mice. Kunming mice of the same age were used as the control group, which were fed by conventional feedstuff with free food and water feeding. Rhein lysine conjugates [the dose is 180 mg/kg (0.418 mmol/kg) and 90 mg/kg (0.209 mmol/kg) for intragastric infusion, prepared with distilled water], dose of the rhein sodium group is 130 mg/kg (0.424 mmol/kg), the mixture was dissolved with distilled water, intragastric administration; rosiglitazone group (the dose is 4 mg/kg), the mixture was dissolved with distilled water, intragastric administration, and the rats of the other two groups were administered with the same volume of distilled water, once a day, 12 weeks of administration in succession. The animals' body weight and blood sugar were measured regularly, and statistical analysis was conducted.

[3] = tested on: diabetic rats; assay: Diabetic nephrosis of obese diabetic rats (high-fat high-sugar diet plus STZ); type: in vivo; settings: for Urine protein / Kidney weight index (double kidney weight/body weight × 10^4) / Serum total cholesterol / Serum triacylglycerol / Steady blood sugar level / Steady insulin level / Weight / blood sugar: six months, ig 90 mg/kg
Experimental: Animal model of diabetic rats: after one month of high-fat high-sugar diet, the rats (about 180 g) were injected by sub-pathogenic dose (25 mg/kg) of streptozotocin (STZ) to induce the occurrence of diabetes. The model has the characteristics of moderate hyperglycemia, hyperlipidemia and insulin resistance as well as pathological changes of typical diabetic nephrosis.
• 1. Conventional feedstuff control group: distilled water. • 2. Diabetes model group: distilled water. • 3. Rhein lysine diabetes treatment group: a month after STZ injection, rhein lysine complex [prepared with distilled water, intragastric infusion for rats according to 90 mg/kg (0.209 mmol/kg) dose] was administered referred to treatment group 1. • 4. Rhein sodium diabetes treatment group: a month after STZ injection, rhein sodium [prepared with distilled water, intragastric infusion for rats, according to 65 mg/kg (0.212 mmol/kg) dose] was administered, referred to treatment group 2. • 5. Rhein lysine diabetes prevention group: one week after STZ injection, rhein lysine conjugates were administered [prepared with distilled water and intragastric infusion for rats, according to 90 mg/kg (0.209 mmol/kg) dose], referred to prevention group 1. • 6. Rhein sodium diabetes prevention group: one week after STZ injection, rhein sodium were administered [prepared with distilled water and intragastric infusion for rats, according to 65 mg/kg (0.212 mmol/kg ) dose], referred to prevention group 2.

[4] = Comparison of metal salts or conjugates hydro-acupuncture (water-carrier) preparation: pH value and clarity; type: physicochemical; settings: 2.0 mg/ml in water, as dissolved
Experimental: Proper amount of different rhein or rhein-containing effective part metal salts or conjugates were put into a 10 ml volumetric flask, added with water, shaken and dissolved for constant volume, and then a water-carrier preparation was obtained. Rhein or rhein-containing effective part sodium salts or sylvan preparation are adjusted to the original pH with diluted hydrochloric acid and the results were shown in Table 4.

[5] = tested on: mice; assay: Immune function in mice (clearance index, phagocytic index); type: in vivo; settings: ig 20 mg/kg, 3 days
Experimental: Fifty Kunming mice, half male and half female, weighing 18-22 g each were selected and randomly divided into five groups, namely, model control group, cyclophosphamide group, rhein sodium group, rhein glucosamine large dose group and small dose group, 10 mice for each group. The mice were administered with medicines by intragastric administration, 0.2 ml/10 g body weight, once every day and administered for 3 days in succession. After the mice were administered with medicines, 30 minutes later, test was carried on according to the method in the literature [Xu Shuyun, Methodology in Pharmacological Experiment (the 3rd version): 934]. The […] and corrected phagocytic index α were calculated, and t-test was conducted for statistical analysis.

[6] = tested on: mice; assay: Xylene-induced swelling of auricle in mice; type: in vivo; settings: ig 200 mg/kg, 3 days
Experimental: Fifty male Kunming mice were selected, weighing 18-22 g each, and randomly divided into five groups, namely, model control group, aspirin group, rhein sodium group, rhein glucosamine large dose group and low dose groups. Each group had 10 mice respectively. The mice were administered with medicines by intragastric administration every day, for 0.2 ml/10 g body weight. The mice of the model control group were administered with equal volume of physiological saline, once every day, continuously administration for 3 days. After 60 minutes of the final administration, carried on test according to the method in the literature [Xu Shuyun, Methodology in Pharmacological Experiment (the 3rd version): 911]. The sweeling degree of auricle was calculated and statistical analysis was conducted.

[7] = tested on: mice; assay: Acetic acid-induced writhing response in mice; type: in vivo; settings: ig 200 mg/kg, 12 days
Experimental: Fifty Kunming mice, half male and half female, weighing 18-22 g each, were selected and randomly divided into five groups, namely, model control group, aspirin group, rhein sodium group, rhein glucosamine large dose group and small dose group, 10 mice for each group. The mice were administered with medicine by intragastric administration every day, 0.2 ml/10 g body weight, once every day, and administered for 12 days in succession. After the final administration of medicines, 30 minutes later, test was carried on according to the methods in the literature [Xu Shuyun, Methodology in Pharmacological Experiment (the 1st version): 882]. The inhibiting rate for writhing response was calculated.

[8] = tested on: rats; assay: Intestinal adhesion in rats; type: in vivo; settings: 10 mg/kg once every two days, 7th day
Experimental: Rats were fasted for 12 h and models were built according to the methods in the literature [Xu Shuyun, Methodology in Pharmacological Experiment (the 3rd version): 1335]. The rats were randomly divided into five groups, namely, model control group, dexamethasone group, rhein sodium group, rhein glucosamine large dose group and low dose group. Each group included 12 rats. […] The rats of the model group were administered with the same volume of NS, while the rats of the positive control group were administered with dexamethasone, administered once every two days, dose: 10 mg/kg. The administration volume was the same as the treatment group. The rats were killed on the 7th day and carried on laparotomy. Adhesion degree was classified and scored respectively. The classification and score of the observed index-adhesion degree can refer to the five-grade classification method prepared by Nair, and determine the classification standard, see Schedule 13. Intestinal adhesion classification adopts Ridit analysis. The test results are as follows (Table 14): […]

[9] = baseline of high-dose group, ig 180 mg/kg once a day
[10] = baseline of low-dose group, ig 90 mg/kg once a day
[11] = prevention group and treatment group, six months after administration

In the case of `NCCCCC(N)C(=O)O.O=C(O)c1cc(O)c2c(c1)C(=O)c1cccc(O)c1C2=O` [Rhein lysine conjugate, Rhein Lysine Conjugate], the “The body weight increased 7 weeks after high-sugar high-fat diet” value ([1]; Group C, after three weeks ig 90 mg/kg once daily) is reported as 16.8 ± 4.8 g, the “The body weight increased 4 weeks after high-sugar high-fat diet” value ([1]; Group C, before start of ig 90 mg/kg) is reported as 15.3 ± 3.8 g and the “The body weight increased 7 weeks after high-sugar high-fat diet” value ([1]; Group D, after three weeks ig 45 mg/kg once daily) is reported as 17.7 ± 4.6 g. The “The body weight increased 4 weeks after high-sugar high-fat diet” value ([1]; Group D, before start of ig 45 mg/kg) was 16.1 ± 4.2 g, the “weight and blood sugar compared with the non-treatment group” value ([2]; 9 weeks after administration) was “extremely significant difference” and the “Blood glucose prior to administration” value [2, 9] was 29.2 ± 3.6 mmol/L. For the same compound, the “Body weight prior to administration” value [2, 9] was 29.2 ± 1.6 g, the “Blood glucose prior to administration” value [2, 10] was 28.7 ± 5.3 mmol/L and the “Body weight prior to administration” value [2, 10] was 28.8 ± 1.6 g. The “Blood glucose 6 w after administration” value ([2]; ig 90 mg/kg once a day) was 31.4 ± 4.9 mmol/L, the “Blood glucose 9 w after administration” value ([2]; ig 90 mg/kg once a day) was 33.7 ± 5.6 mmol/L and the “Blood glucose 12 w after administration” value ([2]; ig 90 mg/kg once a day) was 30.4 ± 4.2 mmol/L. For the same compound, the “Body weight 6 w after administration” value ([2]; ig 90 mg/kg once a day) was 35.7 ± 1.7 g, the “Body weight 9 w after administration” value ([2]; ig 90 mg/kg once a day) was 39.3 ± 1.2 g and the “Body weight 12 w after administration” value ([2]; ig 90 mg/kg once a day) was 41.3 ± 1.6 g. For the same compound, the “Blood glucose 6 w after administration” value ([2]; ig 180 mg/kg once a day) was 30.9 ± 4.2 mmol/L, the “Blood glucose 9 w after administration” value ([2]; ig 180 mg/kg once a day) was 30.2 ± 5.3 mmol/L and the “Blood glucose 12 w after administration” value ([2]; ig 180 mg/kg once a day) was 28.1 ± 5.4 mmol/L. The “Body weight 6 w after administration” value ([2]; ig 180 mg/kg once a day) was 34.9 ± 1.6 g, the “Body weight 9 w after administration” value ([2]; ig 180 mg/kg once a day) was 38.2 ± 1.3 g and the “Body weight 12 w after administration” value ([2]; ig 180 mg/kg once a day) was 40.1 ± 1.4 g. The “kidney weight and kidney weight index compared with the model group” value [3, 11] was “significantly lower”, the “serum cholesterol and triglyceride compared with the model group” value [3, 11] was “significantly lower” and the “urine protein content compared with the model group” value [3, 11] was “significantly lower”. The “blood sugar level compared with the model group” value ([3]; prevention group, six months after administration) was “significantly lower”, the Urine protein ([3]; preventive administration from one week after STZ) was 10.23 ± 3.34 mg/24 h and the “Kidney weight index (double kidney weight/body weight × 10^4)” value ([3]; preventive administration) was 5.26 ± 0.74. The Serum total cholesterol ([3]; preventive administration) was 2.78 ± 0.21 mM, the Serum triacylglycerol ([3]; preventive administration) was 1.56 ± 0.32 and the “Steady blood sugar level” value ([3]; preventive administration) was 6.2 ± 0.4 mmol/L. For the same compound, the Steady insulin level ([3]; preventive administration) was 71.6 ± 3.5 uU/ml, the Weight ([3]; preventive administration) was 248 ± 13 g and the blood sugar ([3]; preventive administration) was 14.98 ± 5.9 mmol/L. For the same compound, the Urine protein ([3]; treatment from a month after STZ) was 15.12 ± 5.68 mg/24 h, the “blood sugar level compared with the model group” value ([3]; treatment group, six months after administration) was “no significant difference” and the “Kidney weight index (double kidney weight/body weight × 10^4)” value ([3]; treatment) was 6.7 ± 0.78. For the same compound, the Serum total cholesterol ([3]; treatment) was 3.56 ± 0.71 mM, the Serum triacylglycerol ([3]; treatment) was 1.63 ± 0.39 and the “Steady blood sugar level” value ([3]; treatment) was 5.6 ± 0.9 mmol/L. It also gave a Steady insulin level ([3]; treatment) of 80 ± 3.5 uU/ml, a Weight ([3]; treatment) of 228 ± 15 g and a blood sugar ([3]; treatment) of 17.4 ± 5.6 mmol/L.
In the case of `O=C([O-])c1cc(O)c2c(c1)C(=O)c1cccc(O)c1C2=O.[K+]` [Rhein sylvin], the PH value [4] is reported as 9-10 and the clarity [4] is reported as “clear”.
In the case of `O=P1(N(CCCl)CCCl)NCCCO1` (stereo not shown) [cyclophosphamide], the “Clearance index (k)” value [5] is reported as 0.0192 ± 0.0102 and the “Phagocytic index (α)” value [5] is reported as 4.0208 ± 0.6698.
With `CC(=O)Oc1ccccc1C(=O)O` [aspirin] the inhibition rate [6] was 48.9%, the swelling degree of auricle [6] was 9.1 ± 1.8 mg and the Inhibiting rate [7] was 65.6%. For the same compound, the Times of writhing [7] was 11.1 ± 6.3 per/20 min.
With `C[C@@H]1C[C@H]2[C@@H]3CCC4=CC(=O)C=C[C@]4(C)[C@@]3(F)[C@@H](O)C[C@]2(C)[C@@]1(O)C(=O)CO` [dexamethasone] the “Rating of adhesion degree 0” value ([8]; number of 12 rats with completely no adhesion) was 1, the “Rating of adhesion degree III” value ([8]; number of 12 rats with more than two adhering zones) was 1 and the “Rating of adhesion degree I” value ([8]; number of 12 rats with one adhering zone) was 2. For the same compound, the “Rating of adhesion degree IV” value ([8]; number of 12 rats with organs adhering to abdominal wall directly) was 0 and the “Rating of adhesion degree II” value ([8]; number of 12 rats with two adhering zones) was 8.
